{"source": "patent US20100130619A1", "about": "“PHARMACEUTICAL COMPOSITION FOR PARENTERAL ADMINISTRATION OF IDEBENONE” (priority 2008, published 2010)", "key": {"[1]": {"test_system": "learning and memory disturbances", "conditions": "rats; cited from earlier work"}, "[2]": {"test_system": "microsomal lipid peroxidation", "conditions": "cited from earlier work"}, "[3]": {"test_system": "cultured cortical neurons", "conditions": "cited from earlier work"}, "Solubility of Idebenone": {"assay": "Solubility of Idebenone", "assay_type": "physicochemical", "description": "The low water solubility of Idebenone makes the task of producing an injectable form very difficult. Use of water miscible solvents (alcohol, propylene glycol, liquid PEG, N-methylpyrrolidone, etc.), where Idebenone dissolves well, is inappropriate due to the immediate precipitation of the drug upon contact with physiological fluids or a water phase. An inclusion complex of Idebenone with cyclodextrin has been described, but it is water dispersible, not soluble and not suitable for injection. The solubility of Idebenone in fixed oils (soy, corn, almond, etc.) is low; drug precipitates from such emulsions during storage, limiting their use for the preparation of injectable forms of […]."}, "[4]": {"conditions": "oral; cited from earlier work"}, "Friedreich's Ataxia": {"test_system": "Friedreich's Ataxia", "conditions": "cited from earlier work"}, "cerebrovascular disease": {"test_system": "cerebrovascular disease", "conditions": "nine patients, 90 mg daily; cited from earlier work"}}}
{"smiles": "COC1=C(OC)C(=O)C(CCCCCCCCCCO)=C(C)C1=O", "note": "[Idebenone, 2,3-dimethoxy-5-methyl-6-(10-hydroxydecyl)-1,4-benzoquinone]", "values": [{"measurement": "learning and memory disturbances", "setting": "[1]", "value": "ameliorates learning and memory disturbances"}, {"measurement": "free radical scavenging", "setting": "[2]; cell cultures", "value": "scavenges a variety of free radical species"}, {"measurement": "microsomal lipid peroxidation", "setting": "[2]; induced by ADP-iron complexes or organic hydroperoxides", "value": "inhibits microsomal lipid peroxidation"}, {"measurement": "rescue on delayed application", "setting": "[3]; applied 30 minutes after the NMDA pulse", "value": "rescues cortical neurons"}, {"measurement": "protection against necrotic degeneration", "setting": "[3]; cultured cortical neurons", "value": "protects cultured cortical neurons against necrotic degeneration"}, {"measurement": "solubility in fixed oils", "setting": "Solubility of Idebenone; fixed oils (soy, corn, almond, etc.)", "value": "low"}, {"measurement": "water solubility", "setting": "Solubility of Idebenone; water", "value": "low"}, {"measurement": "bioavailability", "setting": "[4]", "value": "relatively high"}, {"measurement": "marker of oxidative DNA damage", "setting": "Friedreich's Ataxia; oral 5 mg/kg daily for 8 weeks", "value": "significantly decreased"}, {"measurement": "left ventricular enlargement", "setting": "Friedreich's Ataxia; three patients, 5 mg/kg daily for 4-9 months", "value": "reduction of left ventricular enlargement"}, {"measurement": "EEG and clinical symptoms", "setting": "cerebrovascular disease", "value": "improvements in EEG and clinical symptoms"}]}
